Assay type in all cases: functional, cell-based
In experiment [1] the test system is HeLa. Description: Cytotoxicity against human HeLa cells assessed as reduction in cell viability after 68 hrs by MTT assay.
Experiment [2] relates to A549. Description: Cytotoxicity against human A549 cells assessed as reduction in cell viability after 68 hrs by MTT assay. The settings on record: A549, 68 h. Background: Tetrazolium dyes change colour on reduction, which living cells bring about.
Experiment [3] concerns MCF7. Description: Cytotoxicity against human MCF7 cells assessed as reduction in cell viability after 68 hrs by MTT assay. The settings on record: MCF7, 68 h.
Experiment [4] concerns K562. Description: Cytotoxicity against human K562 cells assessed as reduction in cell viability after 68 hrs by MTT assay. The settings on record: K562, 68 h.
Experiment [5] has as its system A549. Description: Cytotoxicity against human A549 cells assessed as reduction in cell viability after 24 hrs by MTT assay. The settings on record: A549, 24 h.
Experiment [6] has as its system MDA-MB-231. Description: Cytotoxicity against human MDA-MB-231 cells assessed as reduction in cell viability after 24 hrs by MTT assay.
Experiment [7] relates to HepG2. Description: Anticancer activity against human HepG2 cells by MTT assay.
The test system of experiment [8] is 769-P. Description: Anticancer activity against human 769-P cells by MTT assay.
For experiment [9], the system named is MDA-MB-231. Description: Anticancer activity against human MDA-MB-231 cells by MTT assay.
The subject of experiment [10] is MCF7. Description: Cytotoxicity against human MCF7 cells assessed as reduction in cell viability after 48 hrs by MTT assay. The settings on record: MCF7, 48 h.

Turning to `CCOc1cc(Br)cc2c1OCC([N+](=O)[O-])=C2`, the IC50 in [1], in experiment [2], in experiment [3] and in [4] was 0.95 to 6.43 µM each time.
In the case of `COc1ccccc1-c1cc(-c2cc3ccccc3oc2=O)nc(Cc2ccc(F)cc2)n1`, the IC50 was 2.15 to 28.6 µM in experiment [5] and 2.15 to 28.6 µM in [6] (Homo sapiens, MDA-MB-231, 24 h).
As for `COc1ccccc1NC(=O)Nc1ccc(Cc2c(C)c3cc(C(C)(C)C)c(O)cc3oc2=O)cn1`, the IC50 in experiment [1], in experiment [2], in experiment [3] and in [4] was 1.66 to 19.4 µM each time.
Turning to `O=c1ccc2ccc(OCCCn3cc(COc4ccc5ccc(=O)oc5c4)nn3)cc2o1`, the IC50 in [7], in experiment [8] and in [9] was 0.383 to 13.6 µM each time.
Turning to `O=c1oc2ccccc2cc1-c1cc(-c2cccc(Cl)c2)nc(Cc2ccc(F)cc2)n1`, the IC50 is 2.15 to 28.6 µM in experiment [5] and 2.15 to 28.6 µM in [6] (Homo sapiens, MDA-MB-231, 24 h).
As to `Cc1cc(=O)oc2cc(OCc3cn(CCCCCCCCCOc4ccc5ccc(=O)oc5c4)nn3)ccc12`, the IC50 in [7], in experiment [8] and in experiment [9] was 0.383 to 13.6 µM in each case.
As to `O=c1oc2ccccc2cc1-c1cc(-c2ccccc2Br)nc(Cc2ccc(F)cc2)n1`, the IC50 lay in the range of 2.15 to 28.6 µM in [5] and 2.15 to 28.6 µM in [6] (Homo sapiens, MDA-MB-231, 24 h).
As to `O=c1oc2ccccc2cc1-c1cc(-c2ccccc2Cl)nc(Cc2ccc(F)cc2)n1`, the IC50 in experiment [5] lay within 2.15 to 28.6 µM; in experiment [6] (Homo sapiens, MDA-MB-231, 24 h), 2.15 to 28.6 µM.
As for `Cc1cc(=O)oc2cc(OCc3cn(CCCCCCCCCCOc4ccc5ccc(=O)oc5c4)nn3)ccc12`, the IC50 in experiment [7], in [8] and in [9] was 0.383 to 13.6 µM in each case.
For `Cc1cc(-c2cc3cc(Br)ccc3oc2=O)n(-c2nc(-c3ccc(Cl)cc3)cs2)n1`, in experiment [10], the IC50 was in the range of 4.03 to 31.5 µM.
With `Cc1cc(=O)oc2cc(OCc3cn(CCCCOc4ccc5ccc(=O)oc5c4)nn3)ccc12`, the IC50 in [7], in [8] and in experiment [9] was 0.383 to 13.6 µM each time.
Regarding `Cc1cc(=O)oc2cc(OCc3cn(CCCOc4ccc5ccc(=O)oc5c4)nn3)ccc12`, the half-inhibitory concentration (IC50) in [7], in [8] and in experiment [9] was 0.383 to 13.6 µM throughout.
With `Cc1ccccc1-c1cc(-c2cc3ccccc3oc2=O)nc(Cc2ccc(F)cc2)n1`, the IC50 in experiment [5] is 2.15 to 28.6 µM; in experiment [6] (Homo sapiens, MDA-MB-231, 24 h), 2.15 to 28.6 µM.
On to `Cc1c(Cc2ccc(NC(=O)Nc3ccc(F)c(Cl)c3)nc2)c(=O)oc2cc(O)c(C(C)(C)C)cc12`, for which the IC50 in [1], in [2], in [3] and in experiment [4] was 1.66 to 19.4 µM throughout.
With `Cc1cccc(-c2cc(-c3cc4ccccc4oc3=O)nc(Cc3ccc(F)cc3)n2)c1`, the 50% inhibitory concentration (IC50) in experiment [5] lay in the range of 2.15 to 28.6 µM; in experiment [6] (Homo sapiens, MDA-MB-231, 24 h), 2.15 to 28.6 µM.
For `COc1ccc(-c2cc(-c3cc4ccccc4oc3=O)nc(Cc3ccc(F)cc3)n2)cc1`, the IC50 in experiment [5] was 2.23 µM; in experiment [6] (Homo sapiens, MDA-MB-231, 24 h) it was 2.23 µM.
`Cc1cccc(C)c1NC(=O)c1ccc(-n2cc(COc3cc(=O)oc4ccccc34)nn2)cc1`: the IC50 in experiment [6] (mda-mb-231) is 0.03 to 91.6 µM.
Consider `COc1ccc(OC)c(NC(=O)c2ccc(-n3cc(COc4cc(=O)oc5ccccc45)nn3)cc2)c1`, for which the IC50 in experiment [6] (mda-mb-231) lay within 0.03 to 91.6 µM.
With `Cc1ccc(-c2cc(-c3cc4ccccc4oc3=O)nc(Cc3ccc(F)cc3)n2)cc1`, the IC50 in [5] fell in the range of 2.15 to 28.6 µM; in experiment [6] (Homo sapiens, MDA-MB-231, 24 h) it was 2.15 to 28.6 µM.
Consider `O=C(Nc1ccccc1)c1ccc(-n2cc(COc3cc(=O)oc4ccccc34)nn2)cc1`, for which the IC50 in [6] (mda-mb-231) lay in the range of 0.03 to 91.6 µM.
Turning to `O=c1oc2ccccc2cc1-c1cc(-c2cccc(Br)c2)nc(Cc2ccc(F)cc2)n1`, the IC50 was 2.15 to 28.6 µM in experiment [5] and 2.15 to 28.6 µM in experiment [6] (Homo sapiens, MDA-MB-231, 24 h).
`COC(=O)c1cccc(NC(=O)c2ccc(-n3cc(COc4cc(=O)oc5ccccc45)nn3)cc2)c1`: the IC50 in experiment [6] (mda-mb-231) lay in the range of 0.03 to 91.6 µM.
Regarding `Cc1cc(-c2cc3cc(Br)ccc3oc2=O)n(-c2nc(-c3ccccc3)cs2)n1`, the IC50 in experiment [10] lay within 4.03 to 31.5 µM.
`O=c1ccc2ccc(OCCCCCCn3cc(COc4ccc5ccc(=O)oc5c4)nn3)cc2o1`: the half-inhibitory concentration (IC50) in experiment [7], in experiment [8] and in experiment [9] was 0.383 to 13.6 µM each time.
Regarding `CCc1ccccc1NC(=O)c1ccc(-n2cc(COc3cc(=O)oc4ccccc34)nn2)cc1`, the IC50 in [6] (mda-mb-231) was 0.03 to 91.6 µM.
With `Cc1cc(=O)oc2cc(OCc3cn(CCCCCCOc4ccc5ccc(=O)oc5c4)nn3)ccc12`, the IC50 in experiment [7], in [8] and in experiment [9] was 0.383 to 13.6 µM throughout.
As to `Cc1ccc(NC(=O)Nc2ccc(Cc3c(C)c4cc(C(C)(C)C)c(O)cc4oc3=O)cn2)cc1C`, the IC50 in [1], in experiment [2], in experiment [3] and in [4] was 1.66 to 19.4 µM throughout.
Regarding `O=c1oc2ccccc2cc1-c1cc(-c2ccc(Br)cc2)nc(Cc2ccc(F)cc2)n1`, the IC50 in [5] lay in the range of 2.15 to 28.6 µM; in experiment [6] (Homo sapiens, MDA-MB-231, 24 h) it was 2.15 to 28.6 µM.

A word on the IC50: it is the concentration needed to halve the response being measured.

The values are drawn from ChEMBL document CHEMBL4373717, “Coumarin-containing hybrids and their anticancer activities” (Eur J Med Chem, 2019).
